# Results as given in PMC9330922, “Genomewide Analysis and Biological Characterization of Cathelicidins with Potent Antimicrobial Activity and Low Cytotoxicity from Three Bat Species” (Antibiotics, 2022).
# Counter-ions that a name gives are not always drawn. Like-named read-outs stand apart in the source and are kept apart here. No end group written: not given here.
# Assays:
# [1] = test system: HaCaT cells; assay: In vitro cytotoxicity assay, WST-1 cell viability; assay type: cell-based, Human
# Protocol: HaCaT cells were cultured in Dulbecco’s modified Eagle’s medium (DMEM; Hyclone^TM, Logan, UT, USA) with 10% fetal bovine serum (FBS; Hyclone^TM) and 1% penicillin/streptomycin (Pen-Strep; Hyclone^TM) up to 80% confluence at 37 ℃ and 5% CO2. Cells were detached from the plate by adding 0.25% trypsin-EDTA solution (Gibco^TM; Carlsbad, CA, USA). In a 96-well plate, 2 × 10^4 cells were seeded per well and cultured for 24 h. Subsequently, the medium was replaced with 100 μL DMEM (Hyclone^TM) containing 10% heat-inactivated FBS. Peptides were added to each well at concentrations of 64 μg/mL and 160 μg/mL. As references for complete cell lysis, 64 μg/mL melittin (Sigma-Aldrich) and Triton X-100 (Sigma-Aldrich) were used. Untreated cells were used as negative controls. After 24 h incubation at 37 ℃ and 5 % CO2, 10 μL of coloring solution (Cell Proliferation Reagent WST-1^TM; Sigma Aldrich) was added to each well according to the manufacturer’s instructions. The absorbance at 450 nm (treated group and control) and 650 nm (background) was measured in each well using a microplate reader (xMarkTM spectrophotometer; Bio-Rad). The cell viability was calculated using the following equation. All experiments were performed in triplicate. Cell viability (%) = 100 × (OD (treated group) − OD(Background))/(OD (negative control) − OD (Background))(2)
# [2] = test system: Escherichia coli ATCC 25922; assay: microbe, parasite or virus in culture; assay type: cell-based; conditions: MHB
# Protocol: (§1) The antibacterial activities of the chemically synthesized peptides were evaluated against a panel of bacteria consisting of 6 Gram-negative strains, including E. coli ATCC 25922 (American Type Culture Collection, Manassas, VA, USA), P. aeruginosa ATCC 27853, S. Typhimurium ATCC 14028, A. baumannii KCTC (Korean Collection for Type Cultures, Jeongeup, Korea) 23254, K. pneumoniae KCTC 1726, and E. cloacae ATCC 13047, and 6 Gram-positive strains, including S. aureus ATCC 6538, B. cereus ATCC 10876, E. faecalis ATCC 29212, S. agalactiae ATCC 27956, S. dysgalactiae ATCC 27957, and S. equi ATCC 43079. Ampicillin (Sigma-Aldrich, St. Louis, MO, USA), chloramphenicol (Sigma-Aldrich), and gentamicin sulfate (Sigma-Aldrich) were used as controls for antibacterial activity. The MIC was determined by a colorimetric method using the Microbial Viability Assay Kit-WST (Dojindo, Kumamoto, Japan) according to the manufacturer’s manual and the Clinical and Laboratory Standards Institute (CLSI) guidelines (2018). Four colonies of each bacterium were inoculated into 5 mL of Luria-Bertani (LB) broth medium (BD Bioscience, Franklin Lakes, NJ, USA) or brain heart infusion broth (BHIB; BD Bioscience) at 37 °C for 6 h with shaking at 220 rpm. E. faecalis and streptococci were cultured in BHIB because of their slow growth, whereas all other bacteria were cultured in LB medium. The cells were washed by sterile saline (0.9% NaCl) twice and adjusted in a single well of a 96-well plate at a cell density of 1.5 × 10^5 CFU/well in accordance with 0.5 McFarland standard. Subsequently, 180 µL/well of fresh Mueller-Hinton broth (MHB; BD Bioscience), except for E. faecalis and streptococci using BHIB was added to the plate using BHIB. Final concentrations of 1–40 µg/mL (0.3–19.3 μM) of each peptide and reference antibiotic were added to each well. The plates were then incubated at 37 °C for 6 h. Subsequently, 10 µL of the coloring reagent was added, and the mixture was incubated at 37 °C for 2 h. The absorbance of each well was measured at 450 nm using a microplate spectrophotometer (Bio-Rad, xMark spectrophotometer, Hercules, CA, USA). MIC values were determined when the difference in the absorbance values between treatments and blanks (media and coloring reagent only) was less than 0.05. Experiments were performed in triplicate.
# [3] = test system: Streptococcus dysgalactiae ATCC 27957; assay: microbe, parasite or virus in culture; assay type: cell-based; conditions: BHIB
# Protocol: as §1
# [4] = test system: Acinetobacter baumannii KCTC 23254; assay: microbe, parasite or virus in culture; assay type: cell-based; conditions: MHB
# Protocol: as §1
# [5] = test system: Streptococcus agalactiae ATCC 27956; assay: microbe, parasite or virus in culture; assay type: cell-based; conditions: BHIB
# Protocol: as §1
# [6] = test system: Salmonella enterica serovar Typhimurium ATCC 14028; assay: microbe, parasite or virus in culture; assay type: cell-based; conditions: MHB
# Protocol: as §1
# [7] = test system: Enterobacter cloacae subsp. cloacae ATCC 13047; assay: microbe, parasite or virus in culture; assay type: cell-based; conditions: MHB
# Protocol: as §1
# [8] = test system: Streptococcus equi subsp. zooepidemicus ATCC 43079; assay: microbe, parasite or virus in culture; assay type: cell-based; conditions: BHIB
# Protocol: as §1
# [9] = test system: Bacillus cereus ATCC 10876; assay: microbe, parasite or virus in culture; assay type: cell-based; conditions: MHB
# Protocol: as §1
# [10] = test system: Klebsiella pneumoniae subsp. pneumoniae KCTC 1726; assay: microbe, parasite or virus in culture; assay type: cell-based; conditions: Klebsiella pneumoniae, KCTC1726, MHB, read-out: Minimum Inhibitory Concentration
# Protocol: as §1
# [11] = test system: Pseudomonas aeruginosa ATCC 27853; assay: microbe, parasite or virus in culture; assay type: cell-based; conditions: MHB
# Protocol: as §1
# [12] = test system: Staphylococcus aureus ATCC 6538; assay: microbe, parasite or virus in culture; assay type: cell-based; conditions: MHB
# Protocol: as §1
# [13] = test system: Enterococcus faecalis ATCC 29212; assay: microbe, parasite or virus in culture; assay type: cell-based; conditions: BHIB
# Protocol: as §1
# [14] = test system: panel of 12 reference bacteria, comprised of 6 Gram-negative strains and 6 Gram-positive strains; assay type: cell-based; conditions: 6 h
# Protocol: as §1
# [15] = Microbial Viability Assay Kit-WST, 1.5 × 10^5 CFU/well, 37 °C 6 h + 2 h coloring reagent, A450, triplicate
compound,measurement,setting,value
Triton X-100,Cell Viability ± SD,[1],8.9 ± 0.05 %
"CNC(C)C1CCC(N)C(OC2C(N)CC(N)C(OC3OCC(C)(O)C(NC)C3O)C2O)O1 (stereo not drawn) [Gentamicin, gentamicin sulfate]",MIC,"[2]; Escherichia coli, ATCC25922, 8 h, value in brackets, WST colorimetric, 37 °C 6 h + 2 h, triplicate, read-out: Minimum Inhibitory Concentration",2.1 µM
same,Minimum Inhibitory Concentration,[2]; [15],1 µg/mL
same,Minimum Inhibitory Concentration,[3]; [15],15 µg/mL
same,MIC,"[3]; Streptococcus dysgalactiae, ATCC27957, value in brackets, WST colorimetric, 37 °C 6 h + 2 h, triplicate, read-out: Minimum Inhibitory Concentration",31.5 µM
same,MIC,"[4]; Acinetobacter baumannii, KCTC23254, value in brackets, WST colorimetric, 37 °C 6 h + 2 h, triplicate, read-out: Minimum Inhibitory Concentration",21 µM
same,Minimum Inhibitory Concentration,[4]; [15],10 µg/mL
same,Minimum Inhibitory Concentration,[5]; [15],75 µg/mL
same,MIC,"[5]; Streptococcus agalactiae, ATCC27956, value in brackets, WST colorimetric, 37 °C 6 h + 2 h, triplicate, read-out: Minimum Inhibitory Concentration",158 µM
same,Minimum Inhibitory Concentration,[6]; [15],1 µg/mL
same,MIC,"[6]; Salmonella enterica, value in brackets, WST colorimetric, 37 °C 6 h + 2 h, triplicate, read-out: Minimum Inhibitory Concentration",2.1 µM
same,MIC,"[7]; Enterobacter cloacae, ATCC13047, value in brackets, WST colorimetric, 37 °C 6 h + 2 h, triplicate, read-out: Minimum Inhibitory Concentration",2.1 µM
same,Minimum Inhibitory Concentration,[7]; [15],1 µg/mL
same,Minimum Inhibitory Concentration,[8]; [15],45 µg/mL
same,MIC,"[8]; Streptococcus equi, ATCC43079, value in brackets, WST colorimetric, 37 °C 6 h + 2 h, triplicate, read-out: Minimum Inhibitory Concentration",94.5 µM
same,MIC,"[9]; Bacillus cereus, ATCC10876, value in brackets, WST colorimetric, 37 °C 6 h + 2 h, triplicate, read-out: Minimum Inhibitory Concentration",2.1 µM
same,Minimum Inhibitory Concentration,[9]; [15],1 µg/mL
same,MIC,[10]; [15],19 µg/mL
same,MIC,"[10]; value in brackets, WST colorimetric, 37 °C 6 h + 2 h, triplicate",39.8 µM
same,Minimum Inhibitory Concentration,[11]; [15],1 µg/mL
same,MIC,"[11]; Pseudomonas aeruginosa, ATCC27853, value in brackets, WST colorimetric, 37 °C 6 h + 2 h, triplicate, read-out: Minimum Inhibitory Concentration",2.1 µM
same,Minimum Inhibitory Concentration,[12]; [15],1 µg/mL
same,MIC,"[12]; Staphylococcus aureus, ATCC6538, value in brackets, WST colorimetric, 37 °C 6 h + 2 h, triplicate, read-out: Minimum Inhibitory Concentration",2.1 µM
same,MIC,"[13]; Enterococcus faecalis, ATCC29212, value in brackets, WST colorimetric, 37 °C 6 h + 2 h, triplicate, read-out: Minimum Inhibitory Concentration",189 µM
same,Minimum Inhibitory Concentration,[13]; [15],90 µg/mL
ILGPALRIGGRIAGRIAGKLIGDAINRHRERNRQRRG [PD-CATH],"MIC, range over strains",[14],0.7 to 7.3 µM
same,concentration at which the viability of human keratinocyte was affected,[1],160 µg/mL
